Assay [1] has as its target T1, Beta-secretase 1 (Homo sapiens, UniProt P56817). As to the kind of experiment: Inhibition of BACE1 in human HEK293 cells overexpressing APP with Swedish mutation assessed as inhibition of amyloid beta 40 production. The format is cell-based. The conditions noted are these: read-out: IC50.
In assay [2] the target is T1, Beta-secretase 1. As to the kind of experiment: Binding affinity to BACE assessed as displacement of [3H]BMS-599240. The conditions noted are these: read-out: IC50. On the technique in general: Displacement assays read how much labelled ligand stays bound in the presence of the test substance.

Bounds are passed on as bounds.

A word on the IC50: it is the concentration at which inhibition is half-maximal.

T1 sequence (P56817 whole entry): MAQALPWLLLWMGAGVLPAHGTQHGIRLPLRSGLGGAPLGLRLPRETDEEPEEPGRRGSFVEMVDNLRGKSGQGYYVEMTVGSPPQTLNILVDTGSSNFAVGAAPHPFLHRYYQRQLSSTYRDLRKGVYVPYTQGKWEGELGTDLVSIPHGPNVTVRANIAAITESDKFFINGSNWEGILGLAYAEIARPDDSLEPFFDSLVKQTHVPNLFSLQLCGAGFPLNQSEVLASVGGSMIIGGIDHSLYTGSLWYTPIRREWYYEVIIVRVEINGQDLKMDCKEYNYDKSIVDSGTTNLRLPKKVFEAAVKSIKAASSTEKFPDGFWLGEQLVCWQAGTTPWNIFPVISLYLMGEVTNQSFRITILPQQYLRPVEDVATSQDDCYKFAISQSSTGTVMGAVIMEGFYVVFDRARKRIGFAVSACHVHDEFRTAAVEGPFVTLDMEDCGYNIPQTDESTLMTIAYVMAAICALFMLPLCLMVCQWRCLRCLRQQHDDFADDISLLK

On to `COc1cccc(CNC[C@@H](O)[C@H](Cc2cc(F)cc(F)c2)NC(=O)c2cccc(N3CCCCS3(=O)=O)c2)c1`, for which the IC50 at Beta-secretase 1 [1] amounted to 182 nM; on Beta-secretase 1 [2], 74 nM.

With `COc1cccc(CNC[C@@H](O)[C@H](Cc2cc(F)cc(F)c2)NC(=O)c2cc(C(C)=O)cc(N(C)S(C)(=O)=O)c2)c1`, the IC50 on Beta-secretase 1 [1] was 559 nM; at Beta-secretase 1 [2], 124 nM.

Take `CCCN(CCC)C(=O)c1cccc(C(=O)N[C@@H](Cc2cc(F)cc(F)c2)[C@H](O)CNCc2cccc(OC)c2)c1`: the IC50 at Beta-secretase 1 [1] stood at 80 nM; at Beta-secretase 1 [2], 31 nM.

As for `C=CCO/N=C(/C)c1cc(C(=O)N[C@@H](Cc2cc(F)cc(F)c2)[C@H](O)CNCc2cccc(OC)c2)cc(N(C)S(C)(=O)=O)c1`, the figures for the IC50 at Beta-secretase 1 [1] and on Beta-secretase 1 [2] were 363 nM and 151 nM, respectively.

Consider `CCCN(CCC)C(=O)c1cc(CC(C)O)cc(C(=O)N[C@@H](Cc2cc(F)cc(F)c2)[C@H](O)CNCc2cccc(OC)c2)c1` (stereo partly drawn), for which the values for the IC50 on Beta-secretase 1 [1] and at Beta-secretase 1 [2] were 34 nM and 16 nM, respectively.

For `C=CCO/N=C(/C)c1cc(C(=O)N[C@@H](Cc2cc(F)cc(F)c2)[C@H](O)CNCc2cccc(OC)c2)cc(N2CCCCS2(=O)=O)c1`, the concentration for half-maximal inhibition (IC50) at Beta-secretase 1 [1] was 1230 nM; at Beta-secretase 1 [2], 111 nM.

Regarding `C=CCO/N=C(/C)c1cc(C(=O)N[C@@H](Cc2cc(F)cc(F)c2)[C@H](O)CNCc2cccc(OC)c2)cc(C(=O)N[C@H](C)c2ccccc2)c1`, the IC50 on Beta-secretase 1 [1] is 500 nM; at Beta-secretase 1 [2], 86 nM.

Consider `CCCN(CCC)C(=O)c1cc(C(=O)N[C@@H](Cc2cc(F)cc(F)c2)[C@H](O)CNCc2cccc(OC)c2)cc(C(C)N)c1` (stereo partly drawn), for which the IC50 on Beta-secretase 1 [1] was 640 nM; on Beta-secretase 1 [2], 123 nM.

On to `COc1cccc(CNC[C@@H](O)[C@H](Cc2cc(F)cc(F)c2)NC(=O)c2cc(C(=O)N[C@H](C)c3ccccc3)cc(C(C)O)c2)c1` (stereo partly drawn), for which the IC50 came out at 92 nM on Beta-secretase 1 [1] and 29 nM on Beta-secretase 1 [2].

For `COc1cccc(CNC[C@@H](O)[C@H](Cc2cc(F)cc(F)c2)NC(=O)c2cc(/C(C)=N\O)cc(N(c3ccccc3)S(C)(=O)=O)c2)c1`, the IC50 on Beta-secretase 1 [1] was determined as 91 nM; at Beta-secretase 1 [2], 9 nM.

Consider `CO/N=C(\C)c1cc(C(=O)N[C@@H](Cc2cc(F)cc(F)c2)[C@H](O)CNCc2cccc(OC)c2)cc(N(C)S(C)(=O)=O)c1`, for which the IC50 at Beta-secretase 1 [1] came to 52 nM; at Beta-secretase 1 [2], 60 nM.

`COc1cccc(CNC[C@@H](O)[C@H](Cc2cc(F)cc(F)c2)NC(=O)c2cccc(C(=O)NC(C)c3ccc(F)cc3)c2)c1` (stereo partly drawn): the IC50 on Beta-secretase 1 [1] is 266 nM; on Beta-secretase 1 [2], 166 nM.

With `CCCN(CCC)C(=O)c1cc(C(=O)N[C@@H](Cc2cc(F)cc(F)c2)[C@H](O)CNCc2cccc(OC)c2)cc(/C(C)=N\OC)c1`, the IC50 stood at 42 nM at Beta-secretase 1 [1] and 1 nM at Beta-secretase 1 [2].

In the case of `C=CCO/N=C(/C)c1cc(C(=O)NC(C)c2ccc(F)cc2)cc(C(=O)N[C@@H](Cc2cc(F)cc(F)c2)[C@H](O)CNCc2cccc(OC)c2)c1` (stereo partly drawn), the figures for the IC50 on Beta-secretase 1 [1] and on Beta-secretase 1 [2] were 530 nM and 168 nM, respectively.

On to `COc1cccc(CNC[C@@H](O)[C@H](Cc2cc(F)cc(F)c2)NC(=O)c2cc(C(C)=O)cc(N3CCCCS3(=O)=O)c2)c1`, for which the IC50 came to 248 nM at Beta-secretase 1 [1] and 90 nM on Beta-secretase 1 [2].

With `COc1cccc(CNC[C@@H](O)[C@H](Cc2cc(F)cc(F)c2)NC(=O)c2cc(/C(C)=N\OCC(C)C)cc(N3CCCCS3(=O)=O)c2)c1`, the figures for the concentration for half-maximal inhibition (IC50) on Beta-secretase 1 [1] and at Beta-secretase 1 [2] were 2100 nM and 428 nM, respectively.

Regarding `COc1cccc(CNC[C@@H](O)[C@H](Cc2cc(F)cc(F)c2)NC(=O)c2cc(C(=O)NC(C)c3ccc(F)cc3)cc(C(C)O)c2)c1` (stereo partly drawn), the IC50 was found to be 164 nM at Beta-secretase 1 [1] and 37 nM on Beta-secretase 1 [2].

For `COc1cccc(CNC[C@@H](O)[C@H](Cc2cc(F)cc(F)c2)NC(=O)c2cc(/C(C)=N\O)cc(N3CCCCS3(=O)=O)c2)c1`, the values for the IC50 at Beta-secretase 1 [1] and on Beta-secretase 1 [2] were 117 nM and 38 nM, respectively.

As for `CCCO/N=C(/C)c1cc(C(=O)N[C@@H](Cc2cc(F)cc(F)c2)[C@H](O)CNCc2cccc(OC)c2)cc(N(C)S(C)(=O)=O)c1`, the IC50 at Beta-secretase 1 [1] is 217 nM; on Beta-secretase 1 [2], 59 nM.

Consider `CO/N=C(/C)c1cc(C(=O)N[C@@H](Cc2cc(F)cc(F)c2)[C@H](O)CNCc2cccc(OC)c2)cc(C(=O)N[C@H](C)c2ccccc2)c1`, for which the IC50 on Beta-secretase 1 [1] is 82 nM; at Beta-secretase 1 [2], 32 nM.

Regarding `CCCO/N=C(/C)c1cc(C(=O)N[C@@H](Cc2cc(F)cc(F)c2)[C@H](O)CNCc2cccc(OC)c2)cc(N2CCCCS2(=O)=O)c1`, the IC50 at Beta-secretase 1 [1] worked out at 205 nM; at Beta-secretase 1 [2], 25 nM.

As to `COc1cccc(CNC[C@@H](O)[C@H](Cc2cc(F)cc(F)c2)NC(=O)c2cc(C(C)O)cc(N(C)S(C)(=O)=O)c2)c1` (stereo partly drawn), the IC50 stood at 122 nM on Beta-secretase 1 [1] and 43 nM on Beta-secretase 1 [2].

For `COc1cccc(CNC[C@@H](O)[C@H](Cc2cc(F)cc(F)c2)NC(=O)c2cccc(N(C)S(C)(=O)=O)c2)c1`, the IC50 at Beta-secretase 1 [1] was determined as 80 nM; at Beta-secretase 1 [2] it was 75 nM.

Consider `COc1cccc(CNC[C@@H](O)[C@H](Cc2cc(F)cc(F)c2)NC(=O)c2cc(/C(C)=N\OCC(C)C)cc(N(C)S(C)(=O)=O)c2)c1`, for which the IC50 at Beta-secretase 1 [1] is more than 666 nM; at Beta-secretase 1 [2], 173 nM.
